ChEMBL document CHEMBL1139483, “Inhibitors of tripeptidyl peptidase II. 3. Derivation of butabindide by successive structure optimizations leading to a potential general approach to designing exopeptidase inhibitors” (J Med Chem, 2005)
pKi: −log10 of the molar value. Where a SMILES comes first, the peptide text is derived from it. [ ]: non-standard residue; d: D form. The star is where a group is joined. Pip = O=C(O)[C@@H]1CCCCN1; Nle = CCCC[C@H](N)C(=O)O; βNA = c1ccc2cc(N*)ccc2c1; Aze = O=C(O)[C@@H]1CCN1; Nva = CCC[C@H](N)C(=O)O; Abu = CC[C@H](N)C(=O)O; Aib = CC(C)(N)C(=O)O; NHBn = c1ccc(CN*)cc1; NHBu = CCCCN*

biological target: Tripeptidyl-peptidase 2 (Rattus norvegicus, UniProt Q64560); test: Inhibition of TPPII in rat cerebral membrane; type: cell membranes
Sequence (Q64560 whole entry): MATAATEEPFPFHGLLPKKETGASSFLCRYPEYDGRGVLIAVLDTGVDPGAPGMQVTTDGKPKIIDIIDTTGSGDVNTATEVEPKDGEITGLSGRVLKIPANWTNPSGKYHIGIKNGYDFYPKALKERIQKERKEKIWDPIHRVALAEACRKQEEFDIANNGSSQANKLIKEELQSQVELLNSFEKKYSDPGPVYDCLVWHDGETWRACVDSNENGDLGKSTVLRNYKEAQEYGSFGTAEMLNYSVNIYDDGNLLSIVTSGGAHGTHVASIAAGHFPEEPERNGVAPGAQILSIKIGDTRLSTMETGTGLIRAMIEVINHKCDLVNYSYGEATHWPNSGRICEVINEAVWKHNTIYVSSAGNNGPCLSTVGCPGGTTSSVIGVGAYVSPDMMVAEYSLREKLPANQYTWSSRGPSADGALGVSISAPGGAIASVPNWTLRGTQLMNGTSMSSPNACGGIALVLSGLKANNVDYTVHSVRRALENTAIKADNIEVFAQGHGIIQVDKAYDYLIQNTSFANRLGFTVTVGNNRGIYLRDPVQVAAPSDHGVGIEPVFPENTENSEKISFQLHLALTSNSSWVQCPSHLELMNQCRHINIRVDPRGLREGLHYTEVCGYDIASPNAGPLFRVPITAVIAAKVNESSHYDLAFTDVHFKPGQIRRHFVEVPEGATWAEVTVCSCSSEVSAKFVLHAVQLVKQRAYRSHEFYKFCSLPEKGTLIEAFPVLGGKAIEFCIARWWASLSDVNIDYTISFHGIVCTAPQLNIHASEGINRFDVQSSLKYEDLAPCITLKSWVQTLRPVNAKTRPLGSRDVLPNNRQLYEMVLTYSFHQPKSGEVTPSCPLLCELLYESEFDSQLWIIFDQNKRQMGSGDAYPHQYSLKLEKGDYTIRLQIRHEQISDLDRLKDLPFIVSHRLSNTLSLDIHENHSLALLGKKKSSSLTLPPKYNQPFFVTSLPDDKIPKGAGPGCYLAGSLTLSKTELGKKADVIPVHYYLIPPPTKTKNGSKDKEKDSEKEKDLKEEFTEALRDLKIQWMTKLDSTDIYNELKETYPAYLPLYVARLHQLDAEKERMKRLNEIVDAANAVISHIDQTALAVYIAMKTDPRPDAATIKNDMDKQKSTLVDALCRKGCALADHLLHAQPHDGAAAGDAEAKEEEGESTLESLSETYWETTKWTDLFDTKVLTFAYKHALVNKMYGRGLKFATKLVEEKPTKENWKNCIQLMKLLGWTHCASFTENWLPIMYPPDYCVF

| pKi | Compound |
| --- | --- |
| 6.85 | CCCCNC(=O)[C@@H]1CC(Cc2ccccc2)CN1C(=O)[C@@H](N)CC (stereo partly drawn) |
| 5.70 | CCCC[C@H](N)C(=O)N1CCC[C@H]1C(N)=O (H-[Nle]-Pro-NH2) |
| 5.37 | CC[C@H](C)[C@H](N)C(=O)N1CCC[C@H]1C(N)=O (H-Ile-Pro-NH2) |
| 5.68 | C[C@H](N)C(=O)N1CCC[C@H]1C(N)=O (H-Ala-Pro-NH2) |
| 4.15 | NC(=O)[C@@H]1CCCN1C(=O)[C@@H](N)Cc1ccccc1 (H-Phe-Pro-NH2) |
| 5.22 | CC(C)[C@H](N)C(=O)N1CCC[C@H]1C(N)=O (H-Val-Pro-NH2) |
| 4.24 | CC(C)[C@H](N)C(=O)N1CCC[C@H]1C(=O)NN1CCCCC1 |
| 4.40 | CC[C@H](N)C(=O)N1CCC[C@H](C(N)=O)C1 |
| 3.72 | CCCCNC(=O)[C@H]1CCCN1C(=O)[C@@H](N)C(C)C |
| 5.80 | CCC[C@H](N)C(=O)N1CCC[C@H]1C(N)=O (H-[Nva]-Pro-NH2) |
| 6.24 | CC[C@H](N)C(=O)N1CCC[C@H]1C(N)=O (H-[Abu]-Pro-NH2) |
| 5.30 | CCCCNC(=O)[C@@H]1CCCN1C(=O)C(C)(C)N (H-[Aib]-Pro-NHBu) |
| 4.70 | CC[C@H](N)C(=O)N1CC[C@H]1C(N)=O (H-[Abu]-[Aze]-NH2) |
| 3.07 | CC(C)[C@H](N)C(=O)N1CCC[C@H]1C(=O)Nc1ccc2ccccc2c1 (H-Val-Pro-βNA) |
| 5.48 | CC(C)[C@H](N)C(=O)N1CCC[C@H]1C(=O)NCc1ccccc1 (H-Val-Pro-NHBn) |
| 4.92 | CC[C@H](N)C(=O)N1CCCC[C@@H]1C(N)=O |
| 4.46 | CCCCNC(=O)[C@@H]1CCCCN1C(=O)[C@@H](N)CC (H-[Abu]-[Pip]-NHBu) |
| 5.35 | CC[C@@H](C)NC(=O)[C@@H]1CCCN1C(=O)[C@@H](N)CC |
| 5.68 | CC(C)C[C@H](N)C(=O)N1CCC[C@H]1C(N)=O (H-Leu-Pro-NH2) |
| 7.10 | CCCCNC(=O)[C@@H]1CCCN1C(=O)[C@@H](N)CC (H-[Abu]-Pro-NHBu) |
| 4.40 | CC[C@H](N)C(=O)N1CSC[C@@H]1C(N)=O |
| 4.70 | CC[C@H](C)NC(=O)[C@@H]1CCCN1C(=O)[C@@H](N)CC |
| 5.22 | CCCCNC(=O)C1CCCCCN1C(=O)[C@@H](N)CC (stereo partly drawn) |
